Measured values as given in ChEMBL document CHEMBL4017450, “Synthesis and carbonic anhydrase inhibition of a series of SLC-0111 analogs” (Bioorg Med Chem, 2017).

How the values were obtained:
Carbonic anhydrase 9 = Carbonic anhydrase 9 (Homo sapiens, UniProt Q16790)
Description: Inhibition of human recombinant carbonic anhydrase 9 preincubated for 15 mins prior to testing measured for 10 to 100 secs by phenol red-based stopped-flow CO2 hydration assay

Carbonic anhydrase 2 = Carbonic anhydrase 2 (Homo sapiens, UniProt P00918); assay: Inhibition of human recombinant carbonic anhydrase 2 preincubated for 15 mins prior to testing measured for 10 to 100 secs by phenol red-based stopped-flow CO2 hydration assay
Carbonic anhydrase 12 = Carbonic anhydrase 12 (Homo sapiens, UniProt O43570); assay: Inhibition of human recombinant carbonic anhydrase 12 preincubated for 15 mins prior to testing measured for 10 to 100 secs by phenol red-based stopped-flow CO2 hydration assay
Carbonic anhydrase 12, sequence (O43570 whole entry): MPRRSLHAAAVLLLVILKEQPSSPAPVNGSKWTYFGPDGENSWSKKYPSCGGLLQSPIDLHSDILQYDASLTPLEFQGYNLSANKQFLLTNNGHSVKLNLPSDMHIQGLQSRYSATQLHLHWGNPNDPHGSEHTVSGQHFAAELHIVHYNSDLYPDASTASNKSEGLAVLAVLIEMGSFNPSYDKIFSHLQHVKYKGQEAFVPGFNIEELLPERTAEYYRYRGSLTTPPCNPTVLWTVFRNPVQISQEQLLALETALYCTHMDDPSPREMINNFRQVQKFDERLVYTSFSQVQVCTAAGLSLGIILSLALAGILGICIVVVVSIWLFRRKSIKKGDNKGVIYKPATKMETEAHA

Structure (SMILES) | Ki (Carbonic anhydrase 9) [nM] | Ki (Carbonic anhydrase 2) [nM] | Ki (Carbonic anhydrase 12) [nM]
NS(=O)(=O)c1ccc(NC(=O)Nc2ccccc2F)cc1 | 7.7 |  | 
NS(=O)(=O)c1ccc(NC(=O)Nc2ccc(F)c(F)c2F)cc1 | 9.6 |  | 
NS(=O)(=O)c1cccc(NC(=O)Nc2cccc([N+](=O)[O-])c2)c1 | 154 |  | 
CC(=O)c1ccc(NC(=O)Nc2cccc(S(N)(=O)=O)c2)cc1 | 178 |  | 
NS(=O)(=O)c1cccc(NC(=O)Nc2c(F)c(F)c(F)c(F)c2F)c1 | 162 |  | 
NS(=O)(=O)c1ccc(NC(=O)Nc2ccc(F)cc2F)cc1 | 3.7 |  | 
NS(=O)(=O)c1ccc(NC(=O)Nc2cccc(Cl)c2)cc1 | 8.4 | 10 | 8.5
NS(=O)(=O)c1cccc(NC(=O)Nc2ccc(I)cc2)c1 | 116 |  | 
NS(=O)(=O)c1ccc(NC(=O)Nc2cc([N+](=O)[O-])ccc2Cl)cc1 | 8.2 |  | 
NS(=O)(=O)c1ccc(NC(=O)Nc2cc(C(F)(F)F)ccc2F)cc1 | 7.4 |  | 
NS(=O)(=O)c1cccc(NC(=O)Nc2ccc(F)cc2)c1 | 219 |  | 
NS(=O)(=O)c1ccc(NC(=O)Nc2cc(Cl)ccc2Cl)cc1 | 8.9 |  | 
NS(=O)(=O)c1ccc(NC(=O)Nc2cc(F)c(F)cc2F)cc1 | 7.6 |  | 
NS(=O)(=O)c1ccc(NC(=O)Nc2ccc(Cl)cc2F)cc1 | 5.1 |  | 
CC(C)c1ccccc1NC(=O)Nc1cccc(S(N)(=O)=O)c1 | 349 |  | 
